The values below come from patent US20170362228A1, “TETRAHYDRO-PYRIDO[3,4-b]INDOLE ESTROGEN RECEPTOR MODULATORS AND USES THEREOF” (Genentech, Inc., priority 2016, published 2017).

Like-named read-outs stand apart in the source and are kept apart here.

A word on the EC50: it is the concentration needed to bring the measured effect to its halfway point.

The target of experiment [1] is T1, estrogen receptor alpha (ESR1) (Homo sapiens, UniProt P03372).
T1 construct: endogenous in cells; host or cells: MCF7 breast cancer cells
T1 sequence (P03372 1-595): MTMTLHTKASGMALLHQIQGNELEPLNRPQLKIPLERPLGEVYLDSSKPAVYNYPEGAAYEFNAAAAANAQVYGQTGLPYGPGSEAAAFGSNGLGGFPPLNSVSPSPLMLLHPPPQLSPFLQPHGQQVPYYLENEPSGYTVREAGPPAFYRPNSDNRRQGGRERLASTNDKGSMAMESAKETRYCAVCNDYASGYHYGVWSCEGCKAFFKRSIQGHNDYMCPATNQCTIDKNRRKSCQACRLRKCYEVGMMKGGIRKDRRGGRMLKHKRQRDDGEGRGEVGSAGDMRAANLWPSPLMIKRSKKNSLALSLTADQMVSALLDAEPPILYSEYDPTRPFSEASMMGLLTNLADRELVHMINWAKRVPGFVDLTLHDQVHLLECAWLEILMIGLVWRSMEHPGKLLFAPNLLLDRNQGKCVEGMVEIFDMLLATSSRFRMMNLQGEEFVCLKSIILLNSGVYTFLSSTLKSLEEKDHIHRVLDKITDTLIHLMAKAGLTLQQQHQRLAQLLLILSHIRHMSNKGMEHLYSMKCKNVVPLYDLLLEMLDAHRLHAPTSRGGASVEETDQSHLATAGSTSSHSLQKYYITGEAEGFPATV
Nature of the experiment: Breast Cancer Cell ERa High Content Fluorescence Imaging Degradation Assay (Example 901). Format: cell-based. The following applies: Table 1a; MCF7 breast cancer cells, 4 hours; plateau of the maximal effect; DMSO and Fulvestrant define 0% and 100% changes in ESR1. The procedure:
MCF7 breast cancer cells were seeded on day 1 at a density of 10,000 cells per well in 384 well poly-lysine coated tissue culture plate (Greiner # T-3101-4), in 50 μL/well RPMI (phenol red free), 10% FBS (Charcoal stripped), containing L-glutamine. On day 2, compounds were prepared at 2 compound source concentrations: 100 μM and 1 μM (ultimately to give 2 overlapping titration curves), in a Labcyte low dead volume plate, 10 μL/well, and 10 μL of DMSO in designated wells for backfill, and 5 μM Fulvestrant (control compound) in designated wells. Compounds and controls were dispensed using a Labcyte Echo acoustic dispenser to dispense compounds with a predefined serial dilution (1.8×, 10 point, in duplicate) and appropriate backfill and control compounds (final total volume transferred was 417.5 nL and compound dispense volume ranges from 2.5 nL to 417.5 nL; 0.84% DMSO (v/v) final), ultimately producing a concentration range from 0.05 nM to 835 nM. Cell plates were incubated at 37° C., for 4 hours. Fixation and permeabilization were carried out using a Biotek EL406 plate washer and dispenser as follows. Cells were fixed by addition of 15 μL of 16% paraformaldehyde (Electron Microscopy Sciences #15710-S) directly to the 50 μL cell culture medium in each well using the peristaltic pump 5 μL cassette on a Biotek EL406 (final concentration of formaldehyde was 3.7% w/v). Samples were incubated 30 minutes. Well contents was aspirated and 50 μL/well of Phosphate Buffered Saline (PBS) containing 0.5% w/v bovine serum albumen, 0.5% v/v Triton X-100 (Antibody Dilution Buffer) was added to each well. Samples were incubated for 30 minutes. Well contents were aspirated and washed 3 times with 100 μL/well of PBS. Immunofluorescence staining of estrogen receptor alpha (ESR1) was carried out using a Biotek EL406 plate washer and dispenser as follows. The well supernatant was aspirated from the wells and 25 μL/well of anti-ESR1 mAb (F10) (Santa Cruz sc-8002) diluted 1:1000 in Antibody Dilution Buffer was dispensed. Samples were incubated for 2 hours at room temperature. Samples were washed 4 times with 100 μL/well of PBS. 25 uL/well of secondary antibody solution (Alexafluor 488 conjugate anti-mouse IgG (LifeTechnologies #A21202) diluted 1:1000 and Hoechst 33342 1 μg/ml diluted in Antibody Dilution Buffer) were dispensed into each well. Samples were incubated for 2 hours at room temperature. Samples were washed 3 times with 100 μL/well of PBS using a Biotek EL406. Quantitative fluorescence imaging of ESR1 was carried out using a Cellomics Arrayscan V (Thermo). Fluorescence images of the samples (Channel 1: XF53 Hoechst (DNA stain); Channel 2: XF53 FITC (ESR1 stain)) were acquired using a Cellomics VTI Arrayscan using the Bioapplication “Compartmental Analysis” using the auto-exposure (based on DMSO control wells) setting “peak target percentile” set to 25% target saturation for both channels. Channel 1 (DNA stain) was used to define the nuclear region (Circ). Measurements of “Mean_CircAvgIntCh2”, which is the Alexafluor 488 fluorescence intensity (ESR1) within the nuclear region, was measured on a per cell basis and averaged over all the measured cells. Data analysis was carried out using Genedata Screener Software, with DMSO and 5 nM Fulvestrant treated samples being used to define the 0% and 100% changes in ESR1. The “Robust Fit” method was used to define the inflexion point of curve (EC50) and the plateau of the maximal effect (Sinf). Degradation data for exemplary Formula I compounds is reported as ER-alpha MCF7 HCS Sinf(%) values in Table 1.

In experiment [2] the test system is MCF7 cells. Nature of the experiment: In vitro cell proliferation assays (Examples 902 and 903), MCF7. It counts as cell-based. Conditions: Homo sapiens. The procedure: Efficacy of estrogen receptor modulator compounds and chemotherapeutic compounds are measured by a cell proliferation assay employing the following protocol (Mendoza et al (2002) Cancer Res. 62:5485-5488).
The CellTiter-Glo® Luminescent Cell Viability Assay is a homogeneous method to determine the number of viable cells in culture based on quantitation of the ATP present, which signals the presence of metabolically active cells. The CellTiter-Glo® Assay is designed for use with multiwell plate formats, making it ideal for automated high-throughput screening (HTS), cell proliferation and cytotoxicity assays. The homogeneous assay procedure involves adding a single reagent (CellTiter-Glo® Reagent) directly to cells cultured in serum-supplemented medium. Cell washing, removal of medium or multiple pipetting steps are not required. The Cell Titer-Glo® Luminescent Cell Viability Assay, including reagents and protocol are commercially available (Promega Corp., Madison, Wis., Technical Bulletin TB288).
The assay assesses the ability of compounds to enter cells and inhibit cell proliferation. The assay principle is based on the determination of the number of viable cells present by quantitating the ATP present in a homogenous assay where addition of the Cell TiterGlo® reagent results in cell lysis and generation of a luminescent signal through the luciferase reaction. The luminescent signal is proportional to the amount of ATP present.
Procedure: Day 1—Seed Cell Plates (384-well black, clear bottom, microclear, TC plates with lid from Falcon #353962), Harvest cells, Seed cells at 1000 cells per 54 μl per well into 384 well Cell Plates for 3 days assay. Cell Culture Medium: RPMI or DMEM high glucose, 10% Fetal Bovine Serum, 2 mM L-Glutamine, P/S. Incubate 0/N (overnight) at 37° C., 5% CO2.
Day 2—Add Drug to Cells, Compound Dilution, DMSO Plates (serial 1:2 for 9 points). Add 20 μl of compound at 10 mM in the 2nd column of 96 well plate. Perform serial 1:2 across the plate (10 μl+20 μl 100% DMSO) for a total of 9 points using Precision Media Plates 96-well conical bottom polypropylene plates from Nunc (cat.#249946) (1:50 dilution). Add 147 μl of Media into all wells. Transfer 3 μl of DMSO+compound from each well in the DMSO Plate to each corresponding well on Media Plate using Rapidplate® (Caliper, a Perkin-Elmer Co.). For 2 drug combination studies, transfer one drug 1.5 μl of DMSO+compound from each well in the DMSO Plate to each corresponding well on Media Plate using Rapidplate. Then, transfer another drug 1.5 μl to the medium plate.
Drug Addition to Cells, Cell Plate (1:10 dilution): Add 6 μl of media+compound directly to cells (54 μl of media on the cells already). Incubate 3 days at 37° C., 5% CO2 in an incubator that will not be opened often.
Day 5—Develop Plates, Thaw Cell Titer Glo Buffer at room temperature: Remove Cell Plates from 37° C. and equilibrate to room temperature for about 30 minutes. Add Cell Titer-Glo® Buffer to Cell Titer-Glo® Substrate (bottle to bottle). Add 30 μl Cell Titer-Glo® Reagent (Promega cat.# G7572) to each well of cells. Place on plate shaker for about 30 minutes. Read luminescence on Analyst HT Plate Reader (half second per well).
Cell viability assays and combination assays: Cells were seeded at 1000-2000 cells/well in 384-well plates for 16 h. On day two, nine serial 1:2 compound dilutions were made in DMSO in a 96 well plate. The compounds were further diluted into growth media using a Rapidplate® robot (Zymark Corp., Hopkinton, Mass.). The diluted compounds were then added to quadruplicate wells in 384-well cell plates and incubated at 37° C. and 5% CO2. After 4 days, relative numbers of viable cells were measured by luminescence using Cell Titer-Glo® (Promega) according to the manufacturer's instructions and read on a Wallac Multilabel Reader® (PerkinElmer, Foster City). EC50 values were calculated using Prism® 4.0 software (GraphPad, San Diego). […]

Where [3] appears, read: MCF7, Table 1a, read-out: ER-alpha MCF7 HCS (EC50).
[4] abbreviates: MCF7, Table 2, Comparator compounds, read-out: ER-alpha MCF7 HCS EC50.

Turning to `C[C@@H]1Cc2c([nH]c3ccccc23)[C@@H](c2c(F)cc([C@@H](F)C3CN(CCCF)C3)cc2F)N1CC(F)(F)CO` (single isomer, unassigned) [Compound 104], the “ER-alpha MCF7 HCS (S inf)” value in experiment [1] is −99.99%. Moreover, the EC50 in experiment [2] (setting [3]) turned out to be 0.017 nM.
For `C[C@@H]1Cc2c([nH]c3ccccc23)[C@@H](c2c(F)cc([C@H](F)C3CN(CCCF)C3)cc2F)N1CC(F)(F)CO` (single isomer, unassigned) [Compound 105], in that order: −97.71% and 0.021 nM.
For `C[C@@H]1Cc2c([nH]c3ccc(F)cc23)[C@@H](c2c(F)cc([C@H](O)C3CN(CCCF)C3)cc2F)N1CC(F)(F)CO` (single isomer, unassigned) [Compound 114], in that order: −100.60% and 0.035 nM.
Turning to `C[C@@H]1Cc2c([nH]c3ccc(F)cc23)[C@@H](c2c(F)cc([C@@H](O)C3CN(CCCF)C3)cc2F)N1CC(F)(F)CO` (single isomer, unassigned) [Compound 115], the “ER-alpha MCF7 HCS (S inf)” value in experiment [1] was −100.58%. In experiment [2] (setting [3]), the EC50 was determined as 0.065 nM.
Taken in the same sequence, the figures for `C[C@@H]1Cc2c([nH]c3ccccc23)[C@@H](c2c(F)cc([C@H](O)C3CN(CCCF)C3)cc2F)N1CC(F)F` (single isomer, unassigned) [Compound 121] were −98.21% and 0.068 nM.
Take `C[C@@H]1Cc2c([nH]c3ccccc23)[C@@H](c2c(F)cc([C@@H](O)C3CN(CCCF)C3)cc2F)N1CC(F)F` (single isomer, unassigned) [Compound 122]: in experiment [1], the “ER-alpha MCF7 HCS (S inf)” value is −98.05%. The EC50 in experiment [2] (setting [3]) was found to be 0.035 nM.
For `C[C@H]1Cc2c([nH]c3c(F)cccc23)[C@H](c2c(F)cc([C@H](O)C3CN(CCCF)C3)cc2F)N1CC(F)(F)CO` (single isomer, unassigned) [Compound 131], in that order: −95.59% and 7.64 nM.
On to `C[C@@H]1Cc2c([nH]c3ccccc23)[C@@H](c2c(F)cc([C@@H](O)C3CN(CCCF)C3)cc2F)N1C[C@H](F)CO` (single isomer, unassigned) [Compound 139], for which the EC50 in experiment [2] (setting [3]) was determined as 0.31 nM.
On to `C[C@@H]1Cc2c([nH]c3ccccc23)[C@@H](c2c(F)cc(NC3CN(CCCF)C3)cc2F)N1CC(F)(F)CO` [Comparator compound A, 3-[(1R,3R)-1-[2,6-difluoro-4-[[1-(3-fluoropropyl)azetidin-3-yl]amino]phenyl]-3-methyl-1,3,4,9-tetrahydropyrido[3,4-b]indol-2-yl]-2,2-difluoro-propan-1-ol, reference compound], for which the EC50 in experiment [2] (setting [4]) is 0.027 nM.
On the same count and under the same terms, the figure for `C[C@@H]1Cc2c([nH]c3ccccc23)[C@@H](c2ccc([C@@H](O)C3CN(CCCF)C3)cc2)N1CC(C)(C)F` [Comparator compound B, (S)-(4-((1R,3R)-2-(2-fluoro-2-methylpropyl)-3-methyl-2,3,4,9-tetrahydro-1H-pyrido[3,4-b]indol-1-yl)phenyl)(1-(3-fluoropropyl)azetidin-3-yl)methanol, reference compound] is 0.065 nM.
Still for that read-out and setting: as for `C[C@@H]1Cc2c([nH]c3ccccc23)[C@@H](c2ccc([C@H](O)C3CN(CCCF)C3)cc2)N1CC(C)(C)F` [Comparator compound C, (R)-(4-((1R,3R)-2-(2-fluoro-2-methylpropyl)-3-methyl-2,3,4,9-tetrahydro-1H-pyrido[3,4-b]indol-1-yl)phenyl)(1-(3-fluoropropyl)azetidin-3-yl)methanol, reference compound], the figure is 0.12 nM.
Consider `C[C@@H]1Cc2c([nH]c3ccccc23)[C@@H](c2c(F)cc([C@@H](F)C3CN(CCCF)C3)cc2F)N1CC(C)(C)F` [Compound 102, (1R,3R)-1-(2,6-difluoro-4-((S)-fluoro(1-(3-fluoropropyl)azetidin-3-yl)methyl)phenyl)-2-(2-fluoro-2-methylpropyl)-3-methyl-2,3,4,9-tetrahydro-1H-pyrido[3,4-b]indole], for which the concentration giving a half-maximal response (EC50) in experiment [2] (setting [3]) was 0.137 nM.
